# Source: patent US12117387B2, “Biosensor, method for manufacturing the same, and analysis method using the same” (AJOU UNIVERSITY INDUSTRY-ACADEMIC COOPERATION FOUNDATION, priority 2020, dated 2024)
# Tested on: RAW264.7 cell line
# Assay: Boyden chamber (transwell) macrophage migration versus chemoattractant concentration, retroreflection-based cytometry
# Type: cell-based, rat
# Details: 24 hours migration
# Method: Experimental Example 3 was conducted to verify that the RAW264.7 cell line cultured in the transwell (the first chamber) coated with the retroreflective particles migrated under influence of monocytechemoattractant protein-1 (MCP-1) as the chemoattractant present in the lower chamber (second chamber), and migrated to the bottom substate of the well plate (the second chamber). In this example, DMEM (Dulbeccos Modified Eagles Medium) was used as the serum-free culture medium in the upper chamber. The culture medium in the lower chamber was composed of 1 ng/ml MCP-1, 10% Fetal Bovine Serum (FBS), and 1% Penicillin streptomycin (PS) based on DMEM (Dulbeccos Modified Eagles Medium). After the first chamber and the second chamber were combined with each other, the cell migration time was specified for 24 hours to observe the cell migration, and the cell migration was observed while culturing the cells in a cell incubator.
# In Experimental Example 4, an experiment was conducted to verify whether the novel developed retroreflection-based cytometry can be used for an evaluation of cell migration dependence on the concentration of the chemoattractant as used in general cell migration analysis. The MCP-1 introduced into the well plate (the second chamber) was added into the culture medium at a concentration of each of 0, 1, 10, and 100 ng/ml. […]
substance,measurement,setting,value
monocytechemoattractant protein-1 [MCP-1],number of migrated cells,100 ng/ml MCP-1 compared to each of 1 and 10 ng/ml,reduced
same,number of migrated cells,MCP-1 concentration increased from 0 to 10 ng/ml,increased
